# Data taken from PubChem BioAssay (NCI).
#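 Results reflect a 48-hour exposure of cells in 96-well plates to compound at five concentrations. GI50 = concentration required for 50% inhibition of growth. TGI is the concentration that stops growth completely.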
# Key:
# Test in all cases: NCI tumour cell line growth inhibition, 48 h
# 786-0 renal = system: 786-0 renal
# A498 renal = system: A498 renal
# A549 NSCLC = system: A549 NSCLC
# ACHN renal = system: ACHN renal
# BT-549 breast = system: BT-549 breast
# CAKI-1 renal = system: CAKI-1 renal
# CCRF-CEM leukemia = system: CCRF-CEM leukemia
# COLO 205 colon = system: COLO 205 colon
# DU-145 prostate = system: DU-145 prostate
# EKVX NSCLC = system: EKVX NSCLC
# HCC-2998 colon = system: HCC-2998 colon
# HCT-116 colon = system: HCT-116 colon
# HCT-15 colon = system: HCT-15 colon
# HL-60(TB) leukemia = system: HL-60(TB) leukemia
# HOP-62 NSCLC = system: HOP-62 NSCLC
# HOP-92 NSCLC = system: HOP-92 NSCLC
# HS 578T breast = system: HS 578T breast
# HT29 colon = system: HT29 colon
# IGROV1 ovarian = system: IGROV1 ovarian
# K-562 leukemia = system: K-562 leukemia
# KM12 colon = system: KM12 colon
# LOX IMVI melanoma = system: LOX IMVI melanoma
# M14 melanoma = system: M14 melanoma
# MALME-3M melanoma = system: MALME-3M melanoma
# MCF7 breast = system: MCF7 breast
# MDA-MB-231 breast = system: MDA-MB-231 breast
# MDA-MB-435 = system: MDA-MB-435
# MDA-MB-468 breast = system: MDA-MB-468 breast
# MOLT-4 leukemia = system: MOLT-4 leukemia
# NCI-H226 lung = system: NCI-H226 lung
# NCI-H23 lung = system: NCI-H23 lung
# NCI-H460 lung = system: NCI-H460 lung
# NCI-H522 lung = system: NCI-H522 lung
# NCI/ADR-RES ovarian = system: NCI/ADR-RES ovarian
# OVCAR-3 ovarian = system: OVCAR-3 ovarian
# OVCAR-4 ovarian = system: OVCAR-4 ovarian
# OVCAR-5 ovarian = system: OVCAR-5 ovarian
# OVCAR-8 ovarian = system: OVCAR-8 ovarian
# PC-3 prostate = system: PC-3 prostate
# RPMI-8226 leukemia = system: RPMI-8226 leukemia
# RXF 393 renal = system: RXF 393 renal
# SF-268 CNS = system: SF-268 CNS
# SF-539 CNS = system: SF-539 CNS
# SK-MEL-2 melanoma = system: SK-MEL-2 melanoma
# SK-MEL-28 melanoma = system: SK-MEL-28 melanoma
# SK-MEL-5 melanoma = system: SK-MEL-5 melanoma
# SK-OV-3 ovarian = system: SK-OV-3 ovarian
# SN12C renal = system: SN12C renal
# SNB-19 CNS = system: SNB-19 CNS
# SNB-75 CNS = system: SNB-75 CNS
# SR leukemia = system: SR leukemia
# SW-620 colon = system: SW-620 colon
# T-47D breast = system: T-47D breast
# TK-10 renal = system: TK-10 renal
# U251 CNS = system: U251 CNS
# UACC-257 melanoma = system: UACC-257 melanoma
# UACC-62 melanoma = system: UACC-62 melanoma
# UO-31 renal = system: UO-31 renal
structure (smiles),measurement,setting,value
C/C(=N/O)c1ccc(NC(=O)CSc2nnc(-c3ccc(-c4nc5ccc(Cl)cc5[nH]4)cc3)o2)cc1,GI50,786-0 renal,1.91 µM
same,TGI,786-0 renal,3.53 µM
same,GI50,A498 renal,1.94 µM
same,TGI,A498 renal,4.58 µM
same,GI50,A549 NSCLC,1.98 µM
same,TGI,A549 NSCLC,4.2 µM
same,GI50,ACHN renal,2.7 µM
same,TGI,ACHN renal,8.65 µM
same,GI50,BT-549 breast,2.39 µM
same,TGI,BT-549 breast,4.35 µM
same,GI50,CAKI-1 renal,1.85 µM
same,TGI,CAKI-1 renal,3.73 µM
same,GI50,CCRF-CEM leukemia,2.33 µM
same,TGI,CCRF-CEM leukemia,6.75 µM
same,GI50,COLO 205 colon,3.14 µM
same,TGI,COLO 205 colon,12.2 µM
same,GI50,DU-145 prostate,2.09 µM
same,TGI,DU-145 prostate,4.73 µM
same,GI50,EKVX NSCLC,3.05 µM
same,TGI,EKVX NSCLC,13.2 µM
same,GI50,HCC-2998 colon,11.2 µM
same,TGI,HCC-2998 colon,> 100 µM
same,GI50,HCT-116 colon,2.29 µM
same,TGI,HCT-116 colon,5.73 µM
same,GI50,HCT-15 colon,34.5 µM
same,TGI,HCT-15 colon,> 100 µM
same,GI50,HL-60(TB) leukemia,3.63 µM
same,TGI,HL-60(TB) leukemia,17.4 µM
same,GI50,HOP-62 NSCLC,2.01 µM
same,TGI,HOP-62 NSCLC,3.95 µM
same,GI50,HOP-92 NSCLC,1.83 µM
same,TGI,HOP-92 NSCLC,3.86 µM
same,GI50,HS 578T breast,2.21 µM
same,TGI,HS 578T breast,5.19 µM
same,GI50,HT29 colon,2.44 µM
same,TGI,HT29 colon,6 µM
same,GI50,IGROV1 ovarian,3.35 µM
same,TGI,IGROV1 ovarian,12 µM
same,GI50,K-562 leukemia,2.63 µM
same,TGI,K-562 leukemia,10.6 µM
same,GI50,KM12 colon,2.66 µM
same,TGI,KM12 colon,8.48 µM
same,GI50,LOX IMVI melanoma,1.57 µM
same,TGI,LOX IMVI melanoma,2.92 µM
same,GI50,M14 melanoma,1.76 µM
same,TGI,M14 melanoma,3.54 µM
same,GI50,MALME-3M melanoma,1.58 µM
same,TGI,MALME-3M melanoma,2.95 µM
same,GI50,MCF7 breast,2.2 µM
same,TGI,MCF7 breast,5.93 µM
same,GI50,MDA-MB-231 breast,1.83 µM
same,TGI,MDA-MB-231 breast,3.52 µM
same,GI50,MDA-MB-435,1.65 µM
same,TGI,MDA-MB-435,3.27 µM
same,GI50,MDA-MB-468 breast,1.81 µM
same,TGI,MDA-MB-468 breast,4.09 µM
same,GI50,MOLT-4 leukemia,2.62 µM
same,TGI,MOLT-4 leukemia,12.4 µM
same,GI50,NCI-H226 lung,1.74 µM
same,TGI,NCI-H226 lung,3.68 µM
same,GI50,NCI-H23 lung,1.9 µM
same,TGI,NCI-H23 lung,4.09 µM
same,GI50,NCI-H460 lung,1.61 µM
same,TGI,NCI-H460 lung,3.25 µM
same,GI50,NCI-H522 lung,1.57 µM
same,TGI,NCI-H522 lung,3.42 µM
same,GI50,NCI/ADR-RES ovarian,84.7 µM
same,TGI,NCI/ADR-RES ovarian,> 100 µM
same,GI50,OVCAR-3 ovarian,1.74 µM
same,TGI,OVCAR-3 ovarian,3.73 µM
same,GI50,OVCAR-4 ovarian,2.04 µM
same,TGI,OVCAR-4 ovarian,4.58 µM
same,GI50,OVCAR-5 ovarian,3.33 µM
same,TGI,OVCAR-5 ovarian,13.8 µM
same,GI50,OVCAR-8 ovarian,2.94 µM
same,TGI,OVCAR-8 ovarian,9.98 µM
same,GI50,PC-3 prostate,2.21 µM
same,TGI,PC-3 prostate,5.08 µM
same,GI50,RPMI-8226 leukemia,3.16 µM
same,TGI,RPMI-8226 leukemia,15 µM
same,GI50,RXF 393 renal,1.75 µM
same,TGI,RXF 393 renal,3.31 µM
same,GI50,SF-268 CNS,1.83 µM
same,TGI,SF-268 CNS,3.78 µM
same,GI50,SF-539 CNS,1.71 µM
same,TGI,SF-539 CNS,3.08 µM
same,GI50,SK-MEL-2 melanoma,1.78 µM
same,TGI,SK-MEL-2 melanoma,3.68 µM
same,GI50,SK-MEL-28 melanoma,1.73 µM
same,TGI,SK-MEL-28 melanoma,3.18 µM
same,GI50,SK-MEL-5 melanoma,1.75 µM
same,TGI,SK-MEL-5 melanoma,3.33 µM
same,GI50,SK-OV-3 ovarian,2.38 µM
same,TGI,SK-OV-3 ovarian,5.33 µM
same,GI50,SN12C renal,1.87 µM
same,TGI,SN12C renal,4.06 µM
same,GI50,SNB-19 CNS,1.9 µM
same,TGI,SNB-19 CNS,3.62 µM
same,GI50,SNB-75 CNS,1.57 µM
same,TGI,SNB-75 CNS,3.41 µM
same,GI50,SR leukemia,2.84 µM
same,TGI,SR leukemia,15.5 µM
same,GI50,SW-620 colon,2.84 µM
same,TGI,SW-620 colon,8.54 µM
same,GI50,T-47D breast,2.05 µM
same,TGI,T-47D breast,4.5 µM
same,GI50,TK-10 renal,5.78 µM
same,TGI,TK-10 renal,17.4 µM
same,GI50,U251 CNS,1.83 µM
same,TGI,U251 CNS,3.4 µM
same,GI50,UACC-257 melanoma,2.06 µM
same,TGI,UACC-257 melanoma,4.5 µM
same,GI50,UACC-62 melanoma,1.78 µM
same,TGI,UACC-62 melanoma,3.36 µM
same,GI50,UO-31 renal,37.2 µM
same,TGI,UO-31 renal,> 100 µM
